Tests used:
Assay type in all cases: in vivo, human
[1] = tested on: patients with acute ischemic stroke or high-risk TIA; test: AXIOMATIC-SSP composite of new ischemic stroke, MI and all-cause death; details: up to Day 90
From the text: Event rates of the composite of new ischemic non-fatal stroke, non-fatal myocardial infarction, or all-cause death.

[2] = tested on: patients with acute ischemic stroke or high-risk TIA; test: AXIOMATIC-SSP vascular territory of incident infarcts at Day 90 compared with baseline
From the text: At baseline, recent ischemic lesions were detected and quantified using the DWI sequence. Incident infarcts (defined as new imaging lesions compared to the baseline MRI which may be associated with a symptomatic ischemic stroke or be covert in nature) were detected at Day 90 on the FLAIR sequence and categorized as DWI positive or DWI negative based on whether they could also be detected on the DWI sequence. DWI positive lesions at Day 90 were likely associated with infarctions occurring late during the follow-up period (approximately from Day 30 to Day 90) while DWI negative lesions were more likely related to earlier infarctions (approximately occurring by Day 30). The vascular territory of incident infarcts was also assessed at Day 90.

[3] = tested on: patients with acute ischemic stroke or high-risk TIA; test: AXIOMATIC-SSP mRS at the time of first recurrent stroke; details: for mRS Change from Baseline Mean / mRS Change from Baseline Median / mRS Value Mean / mRS Value Median: first recurrent stroke
From the text: (§1) National Institutes of Health Stroke Scale (NIHSS), Modified Rankin Scale (mRS), Montreal Cognitive Assessment (MoCA), and Digit Symbol Substitution Test (subtest of WAIS-IV) were collected at baseline (at randomization for NIHSS), on Days 21 and 90, and at the time of a new stroke event. MoCA and DSST (subset of WAIS-IV) were read by a third-party central laboratory blinded to treatment.
(§2) Descriptive statistics and corresponding change from baseline (where applicable) assessed by the National Institutes of Health Stroke Score (NIHSS), modified Rankin Scale (mRS), Montreal Cognitive Assessment (MoCA), and Digit Symbol Substitution Test (subtest of WAIS-IV) were summarized by treatment group.

[4] = tested on: patients with acute ischemic stroke or high-risk TIA; test: AXIOMATIC-SSP NIHSS at the time of first recurrent stroke; details: for NIHSS Change from Baseline Mean / NIHSS Change from Baseline Median / NIHSS Value Mean / NIHSS Value Median: first recurrent stroke
From the text: as §1, §2

SMILES: C[C@@H]1CCC[C@H](n2cnc(-c3cc(Cl)ccc3-n3cc(Cl)nn3)cc2=O)c2cc(ccn2)-c2c(cnn2C(F)F)NC1=O [milvexian, (5R,9S)-9-(4-(5-chloro-2-(4-chloro-1H-1,2,3-triazol-1-yl)phenyl)-6-oxopyrimidin-1(6H)-yl)-21-(difluoromethyl)-5-methyl-21H-3-aza-1(4,2)-pyridina-2(5,4)-pyrazolacyclonaphan-4-one]
- All Cause Death (%) ([1]; 25 mg BID, N = 318): (0.9) %
- All Cause Death, subjects n ([1]; 25 mg BID, N = 318): 3
- Myocardial Infarction (%) ([1]; 25 mg BID, N = 318): (0.6) %
- Myocardial Infarction, subjects n ([1]; 25 mg BID, N = 318): 2
- New Ischemic Stroke, MI And All Cause Death: Subjects With Event (%) ([1]; 25 mg BID, N = 318): (4.7) %
- All Cause Death (%) ([1]; 25 mg QD, N = 328): (0.9) %
- All Cause Death, subjects n ([1]; 25 mg QD, N = 328): 3
- Myocardial Infarction (%) ([1]; 25 mg QD, N = 328): (0.3) %
- Myocardial Infarction, subjects n ([1]; 25 mg QD, N = 328): 1
- New Ischemic Stroke, MI And All Cause Death: Subjects With Event (%) ([1]; 25 mg QD, N = 328): (5.2) %
- All Cause Death (%) ([1]; 50 mg BID, N = 328): (0.6) %
- All Cause Death, subjects n ([1]; 50 mg BID, N = 328): 2
- Myocardial Infarction (%) ([1]; 50 mg BID, N = 328): (0.3) %
- Myocardial Infarction, subjects n ([1]; 50 mg BID, N = 328): 1
- New Ischemic Stroke, MI And All Cause Death: Subjects With Event (%) ([1]; 50 mg BID, N = 328): (4.9) %
- All Cause Death (%) ([1]; 100 mg BID, N = 310): (1.6) %
- All Cause Death, subjects n ([1]; 100 mg BID, N = 310): 5
- Myocardial Infarction (%) ([1]; 100 mg BID, N = 310): (0.6) %
- Myocardial Infarction, subjects n ([1]; 100 mg BID, N = 310): 2
- New Ischemic Stroke, MI And All Cause Death: Subjects With Event (%) ([1]; 100 mg BID, N = 310): (5.2) %
- All Cause Death, subjects n ([1]; 200 mg BID, N = 351): 4
- Myocardial Infarction, subjects n ([1]; 200 mg BID, N = 351): 3
- Incident infarcts at Day 90 by vascular territory: subjects (percent, in parentheses) ([2]; ACA, 25 BID, N = 285): (1.1)
- Incident infarcts at Day 90 by vascular territory: subjects (percent, in parentheses) ([2]; ACA, 25 QD, N = 305): (0.3)
- Incident infarcts at Day 90 by vascular territory: subjects (percent, in parentheses) ([2]; ACA, 50 BID, N = 306): (1.3)
- Incident infarcts at Day 90 by vascular territory: subjects (percent, in parentheses) ([2]; AChA, 50 BID, N = 306): (0.3)
- Incident infarcts at Day 90 by vascular territory: subjects (percent, in parentheses) ([2]; AChA, 100 BID, N = 275): (0.4)
- Incident infarcts at Day 90 by vascular territory: subjects (percent, in parentheses) ([2]; AChA, 200 BID, N = 311): (0.4)
- Incident infarcts at Day 90 by vascular territory: subjects (percent, in parentheses) ([2]; BASILAR - MIDBRAIN, 25 QD, N = 305): (0.3)
- Incident infarcts at Day 90 by vascular territory: subjects (percent, in parentheses) ([2]; BASILAR - PONS, 50 BID, N = 306): (0.3)
- Incident infarcts at Day 90 by vascular territory: subjects (percent, in parentheses) ([2]; BASILAR - THALAMUS, 25 BID, N = 285): (0.7)
- Incident infarcts at Day 90 by vascular territory: subjects (percent, in parentheses) ([2]; BASILAR - THALAMUS, 25 QD, N = 305): (0.3)
- Incident infarcts at Day 90 by vascular territory: subjects (percent, in parentheses) ([2]; BASILAR - THALAMUS, 50 BID, N = 306): (0.3)
- Incident infarcts at Day 90 by vascular territory: subjects (percent, in parentheses) ([2]; LENTICULO-STRIATE ARTERIES, 25 BID, N = 285): (2.1)
- Incident infarcts at Day 90 by vascular territory: subjects (percent, in parentheses) ([2]; LENTICULO-STRIATE ARTERIES, 25 QD, N = 305): (2.0)
- Incident infarcts at Day 90 by vascular territory: subjects (percent, in parentheses) ([2]; LENTICULO-STRIATE ARTERIES, 50 BID, N = 306): (1.3)
- Incident infarcts at Day 90 by vascular territory: subjects (percent, in parentheses) ([2]; LENTICULO-STRIATE ARTERIES, 100 BID, N = 275): (1.5)
- Incident infarcts at Day 90 by vascular territory: subjects (percent, in parentheses) ([2]; LENTICULO-STRIATE ARTERIES, 200 BID, N = 311): (1.5)
- Incident infarcts at Day 90 by vascular territory: subjects (percent, in parentheses) ([2]; MCA, 25 BID, N = 285): (4.9)
- Incident infarcts at Day 90 by vascular territory: subjects (percent, in parentheses) ([2]; MCA, 25 QD, N = 305): (4.9)
- Incident infarcts at Day 90 by vascular territory: subjects (percent, in parentheses) ([2]; MCA, 50 BID, N = 306): (4.2)
- Incident infarcts at Day 90 by vascular territory: subjects (percent, in parentheses) ([2]; MCA, 100 BID, N = 275): (4.7)
- Incident infarcts at Day 90 by vascular territory: subjects (percent, in parentheses) ([2]; MCA, 200 BID, N = 311): (4.7)
- Incident infarcts at Day 90 by vascular territory: subjects (percent, in parentheses) ([2]; PCA, 25 BID, N = 285): (1.4)
- Incident infarcts at Day 90 by vascular territory: subjects (percent, in parentheses) ([2]; PCA, 25 QD, N = 305): (2.6)
- Incident infarcts at Day 90 by vascular territory: subjects (percent, in parentheses) ([2]; PCA, 50 BID, N = 306): (2.0)
- Incident infarcts at Day 90 by vascular territory: subjects (percent, in parentheses) ([2]; PCA, 100 BID, N = 275): (2.5)
- Incident infarcts at Day 90 by vascular territory: subjects (percent, in parentheses) ([2]; PCA, 200 BID, N = 311): (2.5)
- Incident infarcts at Day 90 by vascular territory: subjects (percent, in parentheses) ([2]; PICA, 25 BID, N = 285): (1.1)
- Incident infarcts at Day 90 by vascular territory: subjects (percent, in parentheses) ([2]; PICA, 25 QD, N = 305): (0.3)
- Incident infarcts at Day 90 by vascular territory: subjects (percent, in parentheses) ([2]; PICA, 100 BID, N = 275): (1.1)
- Incident infarcts at Day 90 by vascular territory: subjects (percent, in parentheses) ([2]; PICA, 200 BID, N = 311): (1.1)
- Incident infarcts at Day 90 by vascular territory: subjects (percent, in parentheses) ([2]; SCA, 25 BID, N = 285): (0.7)
- Incident infarcts at Day 90 by vascular territory: subjects (percent, in parentheses) ([2]; SCA, 25 QD, N = 305): (0.7)
- Incident infarcts at Day 90 by vascular territory: subjects (percent, in parentheses) ([2]; SCA, 100 BID, N = 275): (0.4)
- Incident infarcts at Day 90 by vascular territory: subjects (percent, in parentheses) ([2]; SCA, 200 BID, N = 311): (0.4)
- mRS Change from Baseline Mean ([3]; 25 BID, N 10): 2.1
- mRS Change from Baseline Median ([3]; 25 BID, N 10): 2.0
- mRS Value Mean ([3]; 25 BID, N 10): 2.6
- mRS Value Median ([3]; 25 BID, N 10): 3.0
- mRS Change from Baseline Mean ([3]; 25 QD, N 13): 1.9
- mRS Change from Baseline Median ([3]; 25 QD, N 13): 2.0
- mRS Value Mean ([3]; 25 QD, N 13): 2.7
- mRS Value Median ([3]; 25 QD, N 13): 3.0
- mRS Change from Baseline Mean ([3]; 50 BID, N 11): 1.7
- mRS Change from Baseline Median ([3]; 50 BID, N 11): 1.0
- mRS Value Mean ([3]; 50 BID, N 11): 2.3
- mRS Value Median ([3]; 50 BID, N 11): 2.0
- mRS Change from Baseline Mean ([3]; 100 BID, N 8): 2.4
- mRS Change from Baseline Median ([3]; 100 BID, N 8): 2.5
- mRS Value Mean ([3]; 100 BID, N 8): 2.9
- mRS Value Median ([3]; 100 BID, N 8): 3.0
- mRS Change from Baseline Mean ([3]; 200 BID, N 19): 1.4
- mRS Change from Baseline Median ([3]; 200 BID, N 19): 1.0
- mRS Value Mean ([3]; 200 BID, N 19): 1.8
- mRS Value Median ([3]; 200 BID, N 19): 1.0
- mRS score at the time of a new stroke event compared with placebo ([3]; milvexian arms): numerically lower
- NIHSS Change from Baseline Mean ([4]; 25 BID, N 11): 2.6
- NIHSS Change from Baseline Median ([4]; 25 BID, N 11): 3.0
- NIHSS Value Mean ([4]; 25 BID, N 11): 5.4
- NIHSS Value Median ([4]; 25 BID, N 11): 5.0
- NIHSS Change from Baseline Mean ([4]; 25 QD, N 14): 2.6
- NIHSS Change from Baseline Median ([4]; 25 QD, N 14): 2.0
- NIHSS Value Mean ([4]; 25 QD, N 14): 4.6
- NIHSS Value Median ([4]; 25 QD, N 14): 3.5
- NIHSS Change from Baseline Mean ([4]; 50 BID, N 11): 1.6
- NIHSS Change from Baseline Median ([4]; 50 BID, N 11): 1.0
- NIHSS Value Mean ([4]; 50 BID, N 11): 4.6
- NIHSS Value Median ([4]; 50 BID, N 11): 3.0
- NIHSS Change from Baseline Mean ([4]; 100 BID, N 10): 5.2
- NIHSS Change from Baseline Median ([4]; 100 BID, N 10): 2.5
- NIHSS Value Mean ([4]; 100 BID, N 10): 7.1
- NIHSS Value Median ([4]; 100 BID, N 10): 6.5
- NIHSS Change from Baseline Mean ([4]; 200 BID, N 20): 2.8
- NIHSS Change from Baseline Median ([4]; 200 BID, N 20): 1.0
- NIHSS Value Mean ([4]; 200 BID, N 20): 4.4
- NIHSS Value Median ([4]; 200 BID, N 20): 2.5
- NIHSS score at the time of a new stroke event compared with placebo ([4]; milvexian arms): numerically lower

— patent US20260034130A1 (priority 2022, published 2026)
